Assay results from ChEMBL document CHEMBL1130991, “Synthesis and antibacterial activity of [6,5,5] and [6,6,5] tricyclic fused oxazolidinones” (Bioorg Med Chem Lett, 1998).
In brackets after ≈: the same amount, converted by molar mass.

Tests used:
Assay type in all cases: functional
Bacteroides fragilis = test: Antibacterial activity against Bacteroides fragilis UC12199
Enterococcus faecalis = test: Antibacterial activity against Enterococcus faecalis UC9217
Staphylococcus aureus [1] = test: (§1) Effective dose required to inhibit Staphylococcus aureus UC9213 in mice subjected to a lethal systemic infection (when administered orally); settings: po
Staphylococcus aureus [2] = test: Effective dose required to inhibit Staphylococcus aureus UC9271 in mice subjected to a lethal systemic infection (when administered orally); settings: po
Staphylococcus aureus [3] = test: Antibacterial activity against Staphylococcus aureus UC12673
Staphylococcus aureus [4] = test: Antibacterial activity against Staphylococcus aureus UC9213
[5] = tested on: Staphylococcus epidermidis; test: Antibacterial activity against Staphylococcus epidermidis UC30031UC
Streptococcus pneumoniae = test: Antibacterial activity against Streptococcus pneumoniae UC9912
Mus musculus [6] = test: as §1; settings: po
Mus musculus [7] = test: Compound was evaluated for antibacterial activity against Staphylococcus aureus UC9213 ((methicillin susceptible) in mice administered orally; settings: po

Row | Structure (SMILES) | MIC (Bacteroides fragilis) | MIC (Enterococcus faecalis) | ED50 (Staphylococcus aureus [1]) | ED50 (Staphylococcus aureus [2]) | MIC (Staphylococcus aureus [3]) | MIC (Staphylococcus aureus [4]) | MIC [5] | MIC (Streptococcus pneumoniae) | ED50 (Mus musculus [6]) | ED50 (Mus musculus [7])
1 | CC(=O)NC[C@@H]1OC(=O)N2c3ccc(-c4ccncc4)cc3C[C@@H]12 | 8 µg/mL (≈ 24.7 µM) | 2 µg/mL (≈ 6.19 µM) | 6.1 mg/kg | 16.5 mg/kg | – | – | – | – | – | –
2 | CC(=O)NC[C@@H]1OC(=O)N2c3ccc(S(C)(=O)=O)cc3C[C@@H]12 | > 32 µg/mL | 64 µg/mL (≈ 197 µM) | – | – | 32 µg/mL (≈ 98.7 µM) | 64 µg/mL (≈ 197 µM) | 64 µg/mL (≈ 197 µM) | 16 µg/mL (≈ 49.3 µM) | – | –
3 | CC(=O)NC[C@@H]1OC(=O)N2c3ccc(S(=O)(=O)N(C)CCCO)cc3C[C@@H]12 | > 32 µg/mL | > 64 µg/mL | – | – | > 64 µg/mL | > 64 µg/mL | > 64 µg/mL | > 64 µg/mL | – | –
4 | CC(=O)NC[C@@H]1OC(=O)N2c3ccc(-c4cccnc4)cc3CC[C@H]12 | > 32 µg/mL | > 64 µg/mL | – | – | > 64 µg/mL | > 64 µg/mL | > 64 µg/mL | > 64 µg/mL | – | –
5 | CC(=O)NC[C@@H]1OC(=O)N2c3ccc(S(N)(=O)=O)cc3C[C@@H]12 | > 32 µg/mL | > 64 µg/mL | – | – | > 64 µg/mL | > 64 µg/mL | > 64 µg/mL | > 64 µg/mL | – | –
6 | CC(=O)NC[C@@H]1OC(=O)N2c3ccc(S(=O)(=O)N(C)C)cc3C[C@@H]12 | > 32 µg/mL | > 64 µg/mL | – | – | 64 µg/mL (≈ 181 µM) | 64 µg/mL (≈ 181 µM) | 64 µg/mL (≈ 181 µM) | 64 µg/mL (≈ 181 µM) | – | –
7 | CC(=O)NC[C@@H]1OC(=O)N2c3ccc(C(C)=O)cc3CC[C@H]12 | > 16 µg/mL | > 16 µg/mL | – | – | > 16 µg/mL | > 16 µg/mL | > 16 µg/mL | > 16 µg/mL | – | –
8 | CC(=O)NC[C@@H]1OC(=O)N2c3ccc(-c4cccnc4)cc3CC[C@@H]12 | > 32 µg/mL | 32 µg/mL (≈ 94.8 µM) | – | – | 16 µg/mL (≈ 47.4 µM) | 32 µg/mL (≈ 94.8 µM) | 16 µg/mL (≈ 47.4 µM) | 16 µg/mL (≈ 47.4 µM) | – | –
9 | CC(=O)NC[C@@H]1OC(=O)N2c3ccc(C(C)=O)cc3C[C@H]12 | > 16 µg/mL | > 16 µg/mL | – | – | > 16 µg/mL | > 16 µg/mL | > 16 µg/mL | > 16 µg/mL | – | –
10 | CC(=O)NC[C@@H]1OC(=O)N2c3ccc(-c4ccc(C#N)cc4)cc3C[C@@H]12 | 32 µg/mL (≈ 92.1 µM) | 2 µg/mL (≈ 5.76 µM) | – | – | 4 µg/mL (≈ 11.5 µM) | 4 µg/mL (≈ 11.5 µM) | 2 µg/mL (≈ 5.76 µM) | 2 µg/mL (≈ 5.76 µM) | 17.1 mg/kg | –
11 | CCNS(=O)(=O)c1ccc2c(c1)C[C@H]1[C@H](CNC(C)=O)OC(=O)N21 | > 32 µg/mL | > 64 µg/mL | – | – | > 64 µg/mL | > 64 µg/mL | > 64 µg/mL | > 64 µg/mL | – | –
12 | CC(=O)NC[C@@H]1OC(=O)N2c3ccc(N4CCOCC4)cc3C[C@@H]12 | > 16 µg/mL | 128 µg/mL (≈ 386 µM) | – | – | 64 µg/mL (≈ 193 µM) | 64 µg/mL (≈ 193 µM) | 32 µg/mL (≈ 96.6 µM) | 32 µg/mL (≈ 96.6 µM) | – | > 20 mg/kg
13 | CC(=O)NC[C@@H]1OC(=O)N2c3ccc(S(=O)(=O)NC4CCCC4)cc3C[C@@H]12 | > 32 µg/mL | > 64 µg/mL | – | – | > 64 µg/mL | > 64 µg/mL | > 64 µg/mL | > 64 µg/mL | – | –
14 | CC(=O)NC[C@@H]1OC(=O)N2c3ccccc3C[C@@H]12 | > 32 µg/mL | > 32 µg/mL | – | – | > 32 µg/mL | > 32 µg/mL | > 32 µg/mL | > 32 µg/mL | – | –
15 | CC(=O)NC[C@H]1CN(c2ccc(N3CCOCC3)cc2)C(=O)O1 | 4 µg/mL (≈ 12.5 µM) | 4 µg/mL (≈ 12.5 µM) | – | – | 4 µg/mL (≈ 12.5 µM) | 4 µg/mL (≈ 12.5 µM) | 2 µg/mL (≈ 6.26 µM) | 1 µg/mL (≈ 3.13 µM) | – | –
16 | CC(=O)NC[C@@H]1OC(=O)N2c3ccc(S(=O)(=O)N4CCOCC4)cc3C[C@@H]12 | > 32 µg/mL | > 64 µg/mL | – | – | > 64 µg/mL | > 64 µg/mL | > 64 µg/mL | > 64 µg/mL | – | –
